The pKa sets of Baltruschat and Czodrowski (2020)

Conditions: acidic group

Point of comparison: `[NH3+]CCCCCCCCC(=O)O`, pKa 4.53. Against it:
- c1ncc2[nH]nnc2n1 — higher, 4.88
- O/N=C1\CCCCC\C1=N/O — higher, 10.7
- O=C(O)c1ccc([N+](=O)[O-])cc1Cl — lower, 1.96
- NC(=O)C1CN2CCC1CC2 (configuration not stated) — higher, 9.74
- O=Cc1cccnc1C(=O)O — lower, 3.7
- O=C1CSC(=S)N1 — higher, 6.48
- Oc1onc(-c2ccccc2)c1Br — lower, 2.3
- CC(C)C(=O)CC(=O)C(C)C — higher, 9.86
- O=[N+]([O-])c1cccc(NC=S)c1 — higher, 10.3
- Cc1ccc2cccc(O)c2n1 — higher, 10.1
- CCOP(=O)(O)NS(=O)(=O)c1ccccc1 — lower, 1.8
- O=C1c2ccccc2C(=O)C1Cc1ccccc1 — higher, 5.9
- COc1ccc(C(=S)Nc2ccc(Br)cc2)cc1 — higher, 10.9
- [NH3+]CCCCCCC(=O)O — within 0.2 log units, 4.44
- On1nnc2ccc(Br)cc21 — lower, 3.97
- CCSC(C)C(=O)O (configuration not stated) — lower, 3.8
- C[NH+](C)c1ccccc1C(=O)O — lower, 1.4
- Cc1cc(C)c2cccc(O)c2n1 — higher, 10.6
- O=C1Cc2c1ccc(O)c2Br — higher, 5.75
- C=CC(CC(C)(C)CC(C)(C)C)c1ccc2cccnc2c1O (configuration not stated) — higher, 10
- O=C([O-])C[NH2+]CCc1nnn[nH]1 — lower, 4.32
- Oc1nc2nc[nH]c2c(O)[nH+]1 — lower, 1.2
- Cc1nc2c(N)cccc2[nH]1 — higher, 12.3
- Oc1c(Cl)c(Cl)cc(Cl)c1C[NH+]1CCOCC1 — higher, 4.92
- Nc1nc2nc[nH]c2c(N)[n+]1[O-] — higher, 9.7
- O=C(NO)C1CCCCC1 — higher, 9.87
- O=C(O)c1cc([N+](=O)[O-])ccc1F — lower, 2.73
- N#CCC[n+]1cccc(C(N)=O)c1.[Br-] — higher, 13.2
- O=C1NS(=O)(=O)c2ccccc21 — lower, 1.76
- CCc1c(O)ccc(C(C)C)c1C — higher, 10.8
- CC(=O)[C@@H]1C[C@H](C(=O)O)C1(C)C — within 0.2 log units, 4.63
- N#Cc1ccc(C(=O)O)cc1 — lower, 3.53
- O=C(O)c1ccccc1CO — lower, 3.84
- O=C1CCCC(=O)N1 — higher, 11.4
- O=S(=O)([O-])c1ccc(O)c2[nH]ncc12 — higher, 7.6
- Oc1ccc[nH+]c1 — higher, 5.01
- Clc1ccc2[nH]nnc2c1 — higher, 7.7
- CCOC(=O)c1c(C)nc(C)c(C(=O)OCC)c1-c1cccc(NS(=O)(=O)c2ccc(N)cc2)c1 — higher, 9.7
- CC(=O)NS(=O)(=O)c1ccc(C)cc1 — higher, 4.8
- Oc1ccccc1-c1ccccc1O — higher, 7.5
- COP(=O)(O)NS(C)(=O)=O — lower, 1.16
- OB(O)c1cccc(O)c1 — higher, 8.55
- N#CC(C#N)=NNc1ccccc1Br — higher, 6.35
- O=C(O)C1=C/C=C\C=C/C=C\1 — within 0.2 log units, 4.4
- O=[N+]([O-])c1cc(Cl)c(O)c(Cl)c1 — lower, 3.7
- Cc1cc[n+](O)cc1 — lower, 1.29
- O=[N+]([O-])c1ccc2[nH]cnc2c1 — higher, 10.6
- O=C(O)CCCC(=O)NOCc1ccccc1 — within 0.2 log units, 4.7
- C[n+]1ccc2ccc(O)cc2c1 — higher, 7.09
- CCC1(CC)OC(=O)NC1=O — higher, 5.7
- O=c1ccccc(Br)c1O — higher, 5.96
- O=Cc1cc(Cl)cc([N+](=O)[O-])c1O — within 0.2 log units, 4.46
- CC(=O)C(Cc1ccc(C#N)cc1)C(C)=O — higher, 9.69
- Cc1cc(C)nc(NS(=O)(=O)c2ccc(O)cc2)n1 — higher, 7.52
- ONc1ccc(O)cc1 — higher, 9.83
- O/N=C\c1ccccc1 — higher, 11.3
- C[n+]1ccc(-c2nc3ccccc3[nH]2)cc1 — higher, 8.89
- CCC(C)[C@H]([NH3+])C(=O)O (some centres not stated) — lower, 2.26
- O=C(O)[C@@H]1CSC[NH2+]1 — lower, 1.58
- NC(=O)[C@@H](N)Cc1ccccc1 — higher, 7.26
- CC[C@H](C)[C@H]([NH3+])C(=O)O — lower, 2.31
- Oc1ccc2cccc(Br)c2c1 — higher, 8.94
- OCCNC(=S)S — lower, 2.82
- Cc1cc(N)c(O)cc1C — higher, 10.4
- COc1ccc(S)cc1 — higher, 6.76
- CC/C=C/CC(=O)O — within 0.2 log units, 4.52
- CC(C)(C)CC#CC(=O)O — lower, 2.54
- COc1ccc(O)c(Br)c1 — higher, 8.62
- Cc1ccc(C(=O)O)cc1Br — lower, 3.96
- C(CSCCc1nnn[nH]1)SCCc1nnn[n-]1 — higher, 5.64
- [NH3+]CCc1ccc(O)cc1 — higher, 9.42
- C[C@@H]([NH3+])C(=O)N1CCC[C@H]1C(=O)O — lower, 3.04
- CCN(CC)C(=S)NC(=O)c1cccc(F)c1 — higher, 8.21
- CCOC(=O)CC(=O)c1ccc(C)cc1 — higher, 10.7
- Cc1cc(C[NH+](C)C)c(O)c(C[NH+](C)C)c1 — higher, 6.45
- COc1ccc2c3c([nH]c2c1)C(C)=NCC3 — higher, 15.3

Same assay, conditions: basic group

Point of comparison: `COC(=O)C[C@@H]1[C@@H](C(=O)[O-])NC[C@H]1C(C)O` (some centres not stated), pKa 9.41. Against it:
- COc1ccc(CCN)cc1OC — higher, 9.87
- Nc1ccc2nc3ccccc3cc2c1 — lower, 5.88
- CCc1ccc(N)cc1 — lower, 5.16
- CC(=O)NNC1CCN(C)CC1 — lower, 8.7
- Cc1n[nH]c2c(Nc3ccccc3)ncnc12 — lower, 4.61
- CCCCCCCCOCCN(C)C — lower, 8.87
- Cc1ccc(-c2nnc(-c3ccccc3)o2)cc1 — lower, 1.81
- Cc1cnc2c(c1)c(C)c(C)c1cc(C)cnc12 — lower, 5.54
- COc1c(CN)cc(C)cc1CN — lower, 8.85
- CCCCCC/N=C/c1c(C)cnc(C)c1O — lower, 6.22
- Nc1cccc2cccnc12 — lower, 4.01
- Nc1cc2ccccc2cc1[N+](=O)[O-] — lower, 1.48
- [NH3+]Nc1nncc2ccccc12 — lower, 2.9
- Cc1ccc2cccc(O)c2n1 — lower, 5.63
- CNCC(=O)NCCc1c[nH]cn1 — lower, 8.31
- C=C(C)C(=O)OC(C)CN(C)C (configuration not stated) — lower, 7.96
- O=[N+]([O-])c1cc(-c2ccccc2)nnc1NCC[NH+]1CCOCC1 — lower, 0.2
- CCCCCCCNc1ccccc1 — lower, 5.09
- COc1cc(CN)c(C)cc1N — within 0.2 log units, 9.54
- Cc1cc(C)c2cccc(O)c2n1 — lower, 6.2
- C=CC(CC(C)(C)CC(C)(C)C)c1ccc2cccnc2c1O (configuration not stated) — lower, 4.51
- OC(c1ccccc1)(c1ccccc1)c1ccccn1 — lower, 3.9
- Cc1ccc2nc3ccc(C)cc3cc2c1 — lower, 4.5
- CCCN(CCC)Cc1ccccc1O — lower, 8.3
- Cc1nc2c(N)cccc2[nH]1 — lower, 8.1
- Nc1nnc(-c2ccccc2)s1 — lower, 2.9
- O=C([O-])C(CO)NCc1cc([N+](=O)[O-])ccc1[O-] (configuration not stated) — higher, 9.75
- Nc1nc2nc[nH]c2c(N)[n+]1[O-] — lower, 3.7
- C[NH2+]CCN — lower, 7.49
- CC(N)Cc1ccc2c(c1)OCO2 (configuration not stated) — higher, 9.67
- NCC(F)F — lower, 7.09
- Cc1cc([O-])[nH+]c([S-])n1 — lower, 7.73
- CN(C)c1ccc([N+](C)(C)C)cc1 — lower, 2.64
- c1ccc(-c2ccnc3c2ccc2c(-c4ccccc4)ccnc23)cc1 — lower, 4.84
- CCNC(C)C — higher, 11
- Nc1ccccc1-c1nc2ccccc2s1 — lower, 2.6
- O=C([O-])C1CSCN1 (configuration not stated) — lower, 6.23
- c1cncc(-c2ccoc2)c1 — lower, 4.93
- Cc1cccc(C)c1Oc1ccccn1 — lower, 2.26
- CCCCN(CC(C)O)CC(C)O (configuration not stated) — within 0.2 log units, 9.3
- CC1CNCC[NH2+]1 (configuration not stated) — lower, 5.46
- [NH3+]c1ccc(-c2cnc(-c3ccc(Br)cc3)o2)cc1 — lower, 0.26
- COc1ccc2nc3ccccc3cc2c1 — lower, 3.82
- Cc1ccc(NC(=O)CN2CCCCC2)cc1 — lower, 7.85
- CCCCCCCCCCN(CC(C)O)CC(O)CC (configuration not stated) — lower, 6.7
- c1ccnnc1 — lower, 2.33
- CC(C)N/C=N/c1ccc(-c2cncn2C)cc1 — lower, 8.83
- CN(C)CCN(C)CCN — higher, 9.88
- N#CC(C#N)=NNc1ccccc1Br — lower, -0.8
- Cc1cc2ncn([C@H]3OC[C@@H](O)[C@@H](O)[C@@H]3O)c2cc1C — lower, 4.58
- Cc1nc2[nH]c(=O)[nH]c(=O)c2[nH]1 — lower, 3.1
- O=[N+]([O-])c1ccc2[nH]cnc2c1 — lower, 3.77
- CN(C)c1nc2cc3c(cc2[nH]1)CCCC3 — lower, 7.65
- O=C([O-])[C@@H]1O[C@H](Oc2cccc3cccnc23)[C@@H](O)[C@H](O)[C@H]1O — lower, 4.62
- CCSC(=O)c1cccc(C)c1 — lower, -4.77
- Cn1c(=O)cnc2ccccc21 — lower, -1.15
- Nc1ccc2c([N+](=O)[O-])cccc2c1 — lower, 3.16
- [NH3+]CCC(=O)NCCc1c[nH]cn1 — lower, 6.84
- CCC(=O)c1ccccc1 — higher, 17.6
- Cc1ccc([N+](=O)[O-])cc1/C(=N/CCCN(C)C)c1ccccc1 — lower, 8.8
- [NH3+]C(Cc1cnc[nH]1)C(=O)NCC(=O)[O-] (configuration not stated) — lower, 6.67
- Cc1c(Cn2ccnc2)sc2cc(C(=O)[O-])ccc12 — lower, 6.04
- C[n+]1ccc(-c2nc3ccccc3[nH]2)cc1 — lower, 2.26
- CCN(CC)c1ccc(C(O)(c2ccccc2)c2ccc(N(CC)CC)cc2)cc1 — lower, 7.9
- O=[N+]([O-])c1ccc2[nH]c(-c3cccs3)nc2c1 — lower, 2.36
- CN(C)CCNC(=O)/C=N/[O-] — within 0.2 log units, 9.43
- O=C(Cc1ccccc1Nc1c(Cl)cccc1Cl)OCCCN1CCOCC1 — lower, 7.99
- CNCCCN — higher, 10.7
- Clc1ccc(C(Cn2ccnc2)OCc2ccc(Sc3ccccc3)cc2)c(Cl)c1 (configuration not stated) — lower, 6.54
- Nc1nsc2ccccc12 — lower, 2.45
- CCN1CCCC1CNS(=O)(=O)c1ccc(OC)c(OC)c1OC (configuration not stated) — lower, 8.7
- CCCN(CC)c1ccccc1 — lower, 6.39
- CCNc1nnc(-c2ccccc2)s1 — lower, 3
- CNCC(=O)[O-] — higher, 10.1
- CC(O)c1ccccc1 (configuration not stated) — lower, -7
- Cc1ccnc([O-])n1 — higher, 9.8
- NC(=O)CCc1ccccn1 — lower, 5.09
- CCC(O)CN(C)CCO (configuration not stated) — lower, 8.7
- NCc1ccc([N+](=O)[O-])cc1 — lower, 8.5
- Nc1ccc2[nH]c(CCc3ccccc3)nc2c1 — lower, 7.2
- CC[n+]1c([O-])ccnc1[S-] — lower, 8.65
- Cc1cc(N)c(O)cc1C — lower, 5.28
- CCN(CC)CC(O)C[NH+](CC)CC — lower, 7.74
- CC(C)CN(CC(C)O)CC(C)O (configuration not stated) — lower, 8.8
- COc1cc([N+](=O)[O-])cc(C(=O)N[C@@H]2C[C@H]3CC[C@@H](C2)N3Cc2ccccc2)c1OC — lower, 8.7
- CC[C@@H]1C(=O)OC[C@@H]1Cc1cncn1C — lower, 6.99
- Cc1ccc(/N=C/N(C)C)cc1 — lower, 9.21
- CCCCNCc1ccccc1 — within 0.2 log units, 9.46
- CC[NH+](CC)CCNc1nc(C)nc(Nc2ccc(Cl)cc2)n1 — lower, 4.02
- COc1ccc(CC(C)N)cc1 (configuration not stated) — within 0.2 log units, 9.53
- CCN(CC)CCN(CC)CC — within 0.2 log units, 9.55
- NC1(C(=O)[O-])CCCC1 — higher, 10.1
- NC(=O)CCCc1cccnc1 — lower, 5.33
- Nc1ccc(Br)cc1Br — lower, 2.3
- CC(C)NCCC#N — lower, 8
- C[NH+](C)CCNCC[NH+](C)C — lower, 3.84
- COc1ccc2c3c([nH]c2c1)C(C)=NCC3 — higher, 9.72
- C=CC(=O)OCCN(CC)CC — lower, 8.55
- CN(C)Cc1cc(C[NH+](C)C)cc(O)c1O — lower, 7.22
